According to patent US20080275083A1, “2,3,4,9-TETRAHYDRO-1H-CARBAZOLES” (priority 2007, published 2008):

Target: T1, human FSH receptor (Homo sapiens, UniProt P23945)
T1 construct: expressed in transfected cells; host or cells: CHO cells (hFSHR clone 16)
T1 sequence (P23945 18-695): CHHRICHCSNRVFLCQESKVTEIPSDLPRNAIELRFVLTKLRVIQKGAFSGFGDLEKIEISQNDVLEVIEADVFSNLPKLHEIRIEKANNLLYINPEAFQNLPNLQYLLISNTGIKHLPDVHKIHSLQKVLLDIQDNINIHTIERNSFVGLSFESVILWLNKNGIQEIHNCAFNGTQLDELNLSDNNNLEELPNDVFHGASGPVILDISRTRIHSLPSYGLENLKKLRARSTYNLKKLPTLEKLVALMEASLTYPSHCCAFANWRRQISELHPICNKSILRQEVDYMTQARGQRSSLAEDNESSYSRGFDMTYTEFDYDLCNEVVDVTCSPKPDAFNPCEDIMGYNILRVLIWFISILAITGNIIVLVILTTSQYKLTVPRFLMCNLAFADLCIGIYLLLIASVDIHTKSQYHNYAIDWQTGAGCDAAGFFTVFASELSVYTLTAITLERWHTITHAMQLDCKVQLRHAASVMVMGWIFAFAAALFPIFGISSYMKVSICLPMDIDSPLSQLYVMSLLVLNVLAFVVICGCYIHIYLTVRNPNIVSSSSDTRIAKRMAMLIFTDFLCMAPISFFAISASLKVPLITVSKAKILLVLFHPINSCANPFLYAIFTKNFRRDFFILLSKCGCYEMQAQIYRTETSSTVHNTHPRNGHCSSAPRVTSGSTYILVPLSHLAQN
Assay: HTRF assay for measuring cAMP in cells (FSH-antagonistic effect)
Assay type: cell-based
Settings: hFSHR clone 16 cells (CHO cells stably transfected with the human FSH receptor), in the presence of 1e-9 mol/l hFSH
Method: HTRF Assay for Measuring cAMP in Cells
The method is based on a competitive immunoassay between native cAMP, which has been produced by the cells, and cAMP which is labelled with XL665. The tracer binding was visualized by a monoclonal antibody, anti-cAMP labelled with cryptate [HTRF=homogeneous time-resolved fluorescence].
The specific signal is inversely proportional to the cAMP concentration of the samples employed.
The 665 nm/620 nm fluorescence ratio was evaluated.
The following material was used: 96-well plates for the tissue culture, 96-well plates with black edge and black base (e.g. Fluotrac 600 from Greiner), 96-well plates for the substance dilutions of polypropylene and cAMP Femtomolar (4000 wells Kit, CIS Bio International #62AM1PEC).
The following reagents were used: BSA (bovine serum albumin) Fraction V protease-free, IBMX (3-isobutyl-1-methylxanthine), hFSH (human follicle stimulating hormone), Triton X-100 analytical grade, potassium fluoride analytical grade, G 418 (Geneticin) and Accutase.
Buffer 1 (washing and testing buffer) contained PBS, 1 mM CaCl2, 1 mM MgCl2, 0.2% glucose; 0.1% BSA, 1 mM IBMX. Buffer 2 (2× lysis buffer) contained 1% Triton X-100 in PBS (without CaCl2 and MgCl2). Buffer 3 (assay buffer) contained 50 mM potassium phosphate buffer (pH 7.0); 800 mM potassium fluoride; 0.2% BSA (always added fresh).
On day 1, the cells were seeded in 96-well plates (3×10^4 cells per well hFSHR clone 16 cells (CHO cells stably transfected with the human FSH receptor in 150 μl of medium). The next day, test substance dilutions were made up. For this purpose, all the substances were diluted in ice-cold buffer 1 (with or without hFSH), and the substance dilutions were placed on ice until applied to the cells.
The cell supernatant was then aspirated off, and the cells were washed 2× with 200 μl of buffer 1. The cells were treated with 60 μl of the appropriate substance concentrations at 37° C. for 2 h. The cells were then lysed with 60 μl of buffer 2 (put onto the supernatant) (on a plate shaker at RT for 30 min).
The test conjugates (XL-665 and anti-cAMP cryptate) were diluted in buffer 3 in accordance with the manufacturers' information. The actual mixture for measurement was pipetted into a black 96-well plate (in each case 15 μl of the cell lysate diluted with 35 μl of buffer 1; firstly 25 μl of XL-665 conjugate were pipetted and, after 10 min, 25 μl of the anti-cAMP cryptate were added). This is followed by incubation at RT for 90 minutes. The measurement was carried out in a PheraStar (BMG).
Dose-effect curve (hFSH) for the human receptor: 1e-8, 3e-9, 1e-9, 3e-10, 1e-10, 3e-11, 1e-11, 3e-12 mol/l.
The test substances were employed in suitable dilutions in the absence (test for agonism) and in the presence of 1e-9 mol/l hFSH.
The values of the well ratio were averaged and then entered directly in SigmaPlot versus the concentrations. The maximum and minimum values were determined for each plate, and half the difference is to be regarded as IC50.

IC50	SMILES
0.6 µM	CC(C)Oc1ccc(-c2cc3ccccc3o2)cc1C(=O)NC1(CO)CCc2[nH]c3ccccc3c2C1 (stereo not drawn) [Example 38, 5-Benzofuran-2-yl-N-(3-hydroxymethyl-2,3,4,9-tetrahydro-1H-carbazol-3-yl)-2-isopropoxy-benzamide]
0.35 µM	CC(C)Oc1ccc(-c2cc3ccccc3o2)cc1C(=O)NC1(CO)CCc2[nH]c3ccc(F)cc3c2C1 (stereo not drawn) [Example 42, 5-Benzofuran-2-yl-N-(6-fluoro-3-hydroxymethyl-2,3,4,9-tetrahydro-1H-carbazol-3-yl)-2-isopropoxy-benzamide]
2.5 µM	Cc1cccc2c3c([nH]c12)CCC(CO)(NC(=O)c1cc(-c2cc4ccccc4o2)ccc1OC(C)C)C3 (stereo not drawn) [Example 46, 5-Benzofuran-2-yl-N-(3-hydroxymethyl-8-methyl-2,3,4,9-tetrahydro-1H-carbazol-3-yl)-2-isopropoxy-benzamide]

Second part, the compound before the results:

SMILES	IC50
COc1ccc2nc(-c3ccccc3)cc(C(=O)NC3(CO)CCc4[nH]c5ccccc5c4C3)c2c1 (stereo not drawn) [Example 4, 6-Methoxy-2-phenyl-quinoline-4-carboxylic acid (3-hydroxymethyl-2,3,4,9-tetrahydro-1H-carbazol-3-yl)-amide]	2 µM
COc1ccc(-c2ccc(OC(C)C)c(C(=O)NC3(CO)CCc4[nH]c5ccc(F)cc5c4C3)c2)cc1OC (stereo not drawn) [Example 18, 4-Isopropoxy-3′,4′-dimethoxy-biphenyl-3-carboxylic acid (6-fluoro-3-hydroxymethyl-2,3,4,9-tetrahydro-1H-carbazol-3-yl)-amide]	0.2 µM
CC(C)Oc1ccc(-c2cc3ccccc3o2)cc1C(=O)NC1(CO)CCc2[nH]c3ccc(C(=O)O)cc3c2C1 (stereo not drawn) [Example 39, 6-(5-Benzofuran-2-yl-2-isopropoxy-benzoylamino)-6-hydroxymethyl-6,7,8,9-tetrahydro-5H-carbazole-3-carboxylic acid]	6 µM
